Entries after “also recorded” stand apart in the source; their conditions may differ.
How the values were obtained:
[1] = Laboratory assessments (prolactin, lipids), Clinical Study One; format: in vivo, human
Description: METHOD: A 6-Week randomized, placebo-controlled, risperidone-referenced dose-finding study included 589 randomized patients with an acute exacerbation of schizophrenia (DSM-IV-TR). […] The change in the Positive and Negative Symptom Scale (PANSS) total score, from baseline to endpoint, was the primary outcome measure. Secondary efficacy measures included: PANSS positive, PANSS negative, PANSS general psychopathology (GPP) score, PANSS-derived Brief Psychiatric Rating Scale (BPRS) score, Clinical Global Impressions-Severity of Illness (CGI-S), CGI-Improvement (CGI-I) scores, and responder rates. Safety and tolerability evaluations included extrapyramidal symptoms (EPS), weight gain, lipid profile, and serum prolactin. Risperidone was included for assay sensitivity.

[2] = test system: patients with chronic schizophrenia; experiment: PANSS positive subscale score, Clinical Study Four; format: in vivo, human; details: FAS, ANCOVA; for PANSS positive subscale, Adjusted Mean Change from Baseline (LS mean): LOCF
Method: (§1) METHODOLOGY: This study was a multinational, multicenter, randomized, double-blind, parallel-group, placebo-controlled, fixed-dose study. The study consisted of a 3- to 6-day antipsychotic-free run-in period, after which patients were randomised to 6 months of double-blind treatment with fixed doses of bifeprunox (20 mg/day (BX20) or 30 mg/day (BX30)) or placebo (PBO). Patients allocated to the BX groups were up-titrated from 0.25 mg/day over 7 days (BX20) or 8 days (BX30), and then continued on these doses for the remainder of the study. […] At predetermined time points, blood samples were obtained for drug concentration analysis of BX and its major metabolites (3′- and 4′-sulfate conjugates of BX), and pharmaco-economic assessments were performed.

[3] = test system: patients with chronic schizophrenia; experiment: PANSS responders (reduction in PANSS total score), Clinical Study Four; format: in vivo, human; details: FAS, LOCF
Method: as §1
CLINICAL STUDY FOUR: The proportion of patients with a ≧25%, ≧35%, ≧45%, or ≧55% reduction in PANSS total score relative to baseline at each visit (PANSS responders) is shown by LOCF (FIG. 4).

[4] = Lipid profile and fasting glucose, Clinical Study Four; format: in vivo, human
Method: as §1

CYP2C9, CYP3A4, CYP2D6 = experiment: Metabolism and drug interactions of bifeprunox
Description: The objective of this study is to assess the pharmacokinetics (PK) of bifeprunox. The PK of bifeprunox in healthy subjects were investigated based on a pooled analysis of PK parameters from 21 clinical pharmacology studies. The pooled analysis included PK profiles after single and multiple doses to 132 and 399 subjects, respectively, and explored the potential effects of age, gender, body weight, and race. In addition, PK in patients with schizophrenia were investigated using a population PK approach based on samples from 376 patients in phase II studies and 434 patients in phase III studies.

[5] = Pooled metabolic analysis, 6-week studies: lipid profile
Description: OBJECTIVE: To examine the metabolic effects of bifeprunox in patients with acute and stable schizophrenia.
METHODS: Metabolic data was compiled from one 6-month and four 6-week studies (i.e., a treatment period) of bifeprunox in patients with stable and acute schizophrenia, respectively. In the 6-month study, patients received bifeprunox (n=331) or placebo (PBO) (n=166). […] Metabolic evaluations included body weight, body mass index (BMI), plasma glucose and lipid profiles. Fasting glucose and lipid values were assessed in one 6-week study and in the 6-month study. Triglyceride:HDL ratio (TG:HDL) was calculated as a marker of insulin resistance. No statistical analyses were performed; only descriptive statistics are presented.

[6] = Incidence of hyperglycemia and diabetes-related adverse events in placebo-controlled trials; format: in vivo, human
Description: Hyperglycemia, in some cases extreme and associated with ketoacidosis or hyperosmolar coma or death, has been reported in patients treated with atypical antipsychotics. The incidence of hyperglycemia and diabetes-related adverse events (such as hyperglycemia, elevated blood glucose, impaired glucose tolerance, diabetes mellitus, inadequately controlled diabetes) in patients treated with bifeprunox was 0.5% (5/1050) and in placebo-treated patients was 0.6% (3/469) in six-week placebo-controlled trials. […] Assessment of the relationship between atypical antipsychotic use and glucose abnormalities is complicated by the possibility of an increased background risk of diabetes mellitus in patients with schizophrenia and the increasing incidence of diabetes mellitus in the general population. Given these confounders, the relationship between atypical antipsychotic use and hyperglycemia-related adverse events is not completely understood. […] Because bifeprunox was not marketed at the time these studies were performed, it is not known if bifeprunox is associated with this increased risk. Precise risk estimates for hyperglycemia-related adverse events in patients treated with atypical antipsychotics are not available.

[7] = BX20 (bifeprunox 20 mg), Fasting
[8] = BX20 (bifeprunox 20 mg), Non-fasting
[9] = BX30 (bifeprunox 30 mg), Fasting
[10] = BX30 (bifeprunox 30 mg), Non-fasting
[11] = fasting, endpoint, 6-week studies, BX total, OLZ 15 mg
[12] = non-fasting, endpoint, 6-week studies, BX total, RISP 6 mg, OLZ 15 mg, HAL 10 mg

For `O=c1[nH]c2cccc(N3CCN(Cc4cccc(-c5ccccc5)c4)CC3)c2o1` [Bifeprunox, 7-[4-([1,1′-biphenyl]-3-ylmethyl)-1-piperazinyl]-2(3H)-benzoxazolone], the prolactin ([1]; bifeprunox 5-20 mg, 6 weeks, vs placebo) was “decreased prolactin levels; also recorded: a decrease in prolactin compared with the placebo group”, the “non-fasting triglycerides and total cholesterol compared to placebo” value ([1]; bifeprunox, 6 weeks (Example 4)) was “statistically significant improvements” and the “PANSS positive subscale scores versus PBO, per-visit LOCF analysis” value ([2]; BX20 or BX30) was “statistically significantly superior to that with PBO from Week 6 onwards”. The “PANSS positive subscale, Adjusted Mean Change from Baseline (LS mean)” value ([2]; Month 6) was 0.3, the “PANSS positive subscale, Adjusted Mean Change from Baseline (LS mean)” value ([2]; Week 6, listed as BX20) was −0.9 and the “PANSS positive subscale, Adjusted Mean Change from Baseline (LS mean)” value ([2]; Week 6, listed as BX30) was −0.8. The “proportion of patients with at least a 25% reduction in PANSS total score versus PBO” value ([3]; listed as BX20) was “statistically significantly larger than that in the PBO group from Week 9 onwards”, the “proportion of patients with at least a 25% reduction in PANSS total score versus PBO” value ([3]; listed as BX30) was “statistically significantly larger than that in the PBO group at Month 5 only” and the “adjusted mean fasting glucose increase from baseline to Month 6” value ([4]; BX20) was 0.13 mmol/L. For the same molecule, the “Cholesterol, total, Mean change from baseline to Month 6” value (from here on “Cholesterol, total, Mean change”) [4, 7] was -0.18 mmol/L, the “HDL, direct, Mean change from baseline to Month 6” value (“HDL, direct, Mean change” below) [4, 7] was 0.07 mmol/L and the “LDL, calculated, Mean change from baseline to Month 6” value [4, 7] was -0.1 mmol/L. For the same molecule, the “Triglycerides, Mean change from baseline to Month 6” value [4, 7] was -0.08 mmol/L, the “VLDL, calculated, Mean change from baseline to Month 6” value (“VLDL, calculated, Mean change” below) [4, 7] was -0.03 mmol/L and the “Cholesterol, total, Mean change” value [4, 8] was -0.42 mmol/L. For the same molecule, the “HDL, direct, Mean change” value [4, 8] was 0.12 mmol/L, the “LDL, calculated, Mean change from baseline to Month 6” value [4, 8] was -0.35 mmol/L and the “Triglycerides, Mean change from baseline to Month 6” value [4, 8] was -0.41 mmol/L. For the same molecule, the “VLDL, calculated, Mean change” value [4, 8] was -0.19 mmol/L, the “adjusted mean HDL cholesterol change from baseline to Month 6” value (“adjusted mean HDL cholesterol change” for short) ([4]; BX20, fasting) was 0.07 mmol/L and the “adjusted mean triglycerides change from baseline to Month 6” value (“adjusted mean triglycerides change” for short) ([4]; BX20, fasting) was -0.16 mmol/L. For the same molecule, the “adjusted mean HDL cholesterol change” value ([4]; BX20, non-fasting) was 0.08 mmol/L, the “adjusted mean triglycerides change” value ([4]; BX20, non-fasting) was -0.21 mmol/L and the “adjusted mean fasting glucose increase from baseline to Month 6” value ([4]; BX30) was 0.09 mmol/L. For the same molecule, the “Cholesterol, total, Mean change” value [4, 9] was -0.22 mmol/L, the “HDL, direct, Mean change” value [4, 9] was 0.05 mmol/L and the “LDL, calculated, Mean change from baseline to Month 6” value [4, 9] was -0.12 mmol/L. The “Triglycerides, Mean change from baseline to Month 6” value [4, 9] was -0.40 mmol/L, the “VLDL, calculated, Mean change” value [4, 9] was -0.16 mmol/L and the “Cholesterol, total, Mean change” value [4, 10] was -0.10 mmol/L. The “HDL, direct, Mean change” value [4, 10] was 0.08 mmol/L, the “LDL, calculated, Mean change from baseline to Month 6” value [4, 10] was -0.12 mmol/L and the “Triglycerides, Mean change from baseline to Month 6” value [4, 10] was 0.06 mmol/L. For the same molecule, the “VLDL, calculated, Mean change” value [4, 10] was 0.03 mmol/L, the “adjusted mean HDL cholesterol change” value ([4]; BX30, fasting) was 0.07 mmol/L and the “adjusted mean triglycerides change” value ([4]; BX30, fasting) was -0.37 mmol/L. The “adjusted mean HDL cholesterol change” value ([4]; BX30, non-fasting) was 0.08 mmol/L, the “adjusted mean triglycerides change” value ([4]; BX30, non-fasting) was -0.03 mmol/L and the metabolizing enzymes (CYP2C9, CYP3A4, CYP2D6; human, in vivo) was “metabolized by CYP2C9, CYP3A4 and to a lesser extent, CYP2D6”. For the same molecule, the interaction potential (CYP2C9, CYP3A4, CYP2D6; in vivo) was “low interaction potential”, the “plasma levels in CYP2C9 slow/intermediate metabolizers” value (CYP2C9, CYP3A4, CYP2D6; vs subjects with normal enzyme activity) was “higher plasma levels” and the “bifeprunox exposure on co-administration” value (CYP2C9, CYP3A4, CYP2D6; with carbamazepine (CYP3A4 inducer)) was “reduced”. For the same molecule, the “bifeprunox exposure on co-administration” value (CYP2C9, CYP3A4, CYP2D6; with fluconazole (CYP2C9 inhibitor)) was “increased”, the “change in total cholesterol (TC)” value ([5]; 6-week studies) was -0.40 mmol/L and the “decrease in total cholesterol (TC)” value ([5]; 6-week studies) was 8%. For the same molecule, the “non-fasting total cholesterol and triglyceride at endpoint (in words)” value ([5]; 6-week studies) was “greatest decreases”, the “change in TG” value ([5]; 6 week studies) was -0.44 mmol/L and the “decrease in TG” value ([5]; 6 week studies) was 24%. The “Fasting HDL, Mean change (SD)” value [5, 11] was −0.5 (10.7) mg/dL, the “Fasting HDL, Percentage mean change” value [5, 11] was −1.0% and the “Total cholesterol, Mean change (SD)” value [5, 11] was −15.5 (32.9) mg/dL. The “Total cholesterol, Percentage mean change” value [5, 11] was −7.9%, the “Triglyceride:HDL ratio, Mean change (SD)” value [5, 11] was −0.4 (0.9) and the “Triglyceride:HDL ratio, Percentage mean change” value [5, 11] was −23.8%. The “Triglycerides, Mean change (SD)” value [5, 11] was −38.9 (73.5) mg/dL, the “Triglycerides, Percentage mean change” value [5, 11] was −24.2% and the “Total cholesterol, Mean change (SD)” value [5, 12] was −12.9 (0.8) mg/dL. The “Triglycerides, Mean change (SD)” value [5, 12] was −38.7 (1.3) mg/dL, the “hyperglycemia or diabetes-related adverse events” value ([6]; 26-week placebo-controlled trial) was “no patients reported” and the “incidence of hyperglycemia and diabetes-related adverse events” value ([6]; six-week placebo-controlled trials) was 0.5%.
